Measurements: paper PMC3501490 (PLoS ONE, 2012)
Where no end group is shown, it is not given here. [ ]: non-standard residue; d: D form. pY = N[C@@H](Cc1ccc(OP(=O)(O)O)cc1)C(=O)O

Columns and labels:
SHP-2 = assay: Peptide pull down from platelet lysate, SHP-2; assay type: binding; settings: human platelet lysate, Western blotting; 4°C, 30 min; n = 3
Experimental: (§1) Forty micrograms of peptide were coupled to 50 µl of Streptactin beads (50% slurry) for 30 minutes at 4°C with end-over-end mixing, washed twice with 1 ml PBS and resuspended in 100 µl of modified Tyrodes buffer. Platelets were resuspended in modified Tyrodes buffer at a concentration of 2×10^9 cells/ml under non-aggregating conditions (10 µM indomethacin, 1 mM EGTA and 2 U/ml apyrase). Cells were activated with 1 ug/ml CRP for 90 seconds under stirring, but non-aggregating conditions, before reactions were terminated by the addition of 500 µl 2× NP40 lysis buffer (150 mM NaCl, 10 mM Tris pH 7.5, 1 mM EGTA, 1 mM EDTA, 1% NP-40) with inhibitors (Roche Complete mini protease inhibitor cocktail, 5 mM NaF, 5 mM NaVO4, 250 nM beta-glycerophosphate) and placed on ice. Lysates were pooled and pre-cleared as a batch with 200 µl streptactin beads (50% slurry). Non-specific interactions were then removed by centrifugation at 4,750 g for 15 minutes at 4°C. Pre-cleared lysates were incubated with 50 µl peptide/bead conjugate (50% slurry) at 4°C for 30 minutes with end-over-end mixing. […]
(§2) Although likely that these interactions are direct, this has not yet been conclusively shown. […] Peptide associated material was separated by SDS-PAGE and assessed for the presence of SHP-1 and SHP-2 by Western blotting, both of which were clearly identified (Figure 1C).

SHP-1 = assay: Peptide pull down from platelet lysate, SHP-1; assay type: binding; settings: human platelet lysate, Western blotting; 4°C, 30 min; n = 3
Experimental: as §1, §2

[1] = system: washed human platelets (CRP); assay: Light transmission aggregometry of TAT-peptide-loaded platelets, CRP; assay type: cell-based; settings: for effect on EC50 / sensitivity to CRP: washed human platelets, TAT peptide loading
Experimental: (§3) Whole blood was taken from healthy volunteers and collected into 50 ml syringes containing 5 ml acid citrate-dextrose (ACD) in accordance with procedures approved by the Local Research Ethics Committee (Ref: 07/Q1603/17). Platelet-rich plasma (PRP) was isolated by centrifugation at 200 g for 10 minutes at room temperature. PRP was pooled and 10 µg PGI2 was added before centrifugation at 1000 g for 10 minutes at room temperature. Platelets were resuspended in 1 ml Tyrodes buffer (134 mM NaCl, 0.34 mM Na2HPO4, 2.9 mM KCl, 12 mM NaHCO3, 20 mM HEPES, 5 mM glucose, 1 mM MgCl2, pH 7.3) pre-warmed to 30°C and 150 µl ACD. The volume was adjusted to 25 ml with Tyrodes buffer, followed by 3 ml ACD and 1.25 µg PGI2. Cells were centrifuged at 1000 g for 10 minutes at room temperature and the resultant cell pellet was resuspended in 1 ml pre-warmed Tyrodes buffer before adjusting the volume to a final cell density of 4×10^8 cells/ml (aggregations) or 2×10^9 cells/ml (peptide pull downs). Where appropriate, 1 mM EGTA, 10 µM indomethacin and 2 U/ml apyrase were added to inhibit aggregations (referred to as non-aggregating conditions).
(§4) Fluorescein-labelled, TAT-G6B-b peptides were synthesised by Peptide Protein Research Ltd (Hampshire, U.K.). Peptides were either unphosphorylated, or phosphorylated at both ITIMs as follows: Dual phosphorylated peptide – FLUO- […]*[…]*AVVV or unphosphorylated control peptide (lacking tyrosine phosphorylation) - FLUO- […]. TAT sequences are underlined and phosphorylated tyrosines marked with an asterisk. Peptides were loaded into washed platelets by incubation with 10 µM peptide for 15 minutes at 30°C, after which they were assessed by light transmission aggregometry. Peptide loading conditions were optimised and verified by flow cytometry.
(§5) Washed human platelets were loaded with TAT-G6B-b peptides (either dual phosphorylated or unphosphorylated) and changes in CRP efficacy determined by light transmission aggregometry. […] Thrombin-mediated activation was unaffected (data not shown). […] Peptide loading was verified by flow cytometry (Figure 9C and 9D.

[2] = system: washed human platelets (collagen); assay: Light transmission aggregometry of TAT-peptide-loaded platelets, collagen; assay type: cell-based; settings: for effect on EC50 / sensitivity to collagen: washed human platelets, TAT peptide loading
Experimental: as §3, §4, §5

[3] = system: washed human platelets (thrombin); assay: Activation of TAT-peptide-loaded platelets, thrombin; assay type: cell-based; settings: platelets loaded with 10 µM peptide, 15 min, 30°C; data not shown
Experimental: Whole blood was taken from healthy volunteers and collected into 50 ml syringes containing 5 ml acid citrate-dextrose (ACD) in accordance with procedures approved by the Local Research Ethics Committee (Ref: 07/Q1603/17). Platelet-rich plasma (PRP) was isolated by centrifugation at 200 g for 10 minutes at room temperature. PRP was pooled and 10 µg PGI2 was added before centrifugation at 1000 g for 10 minutes at room temperature. Platelets were resuspended in 1 ml Tyrodes buffer (134 mM NaCl, 0.34 mM Na2HPO4, 2.9 mM KCl, 12 mM NaHCO3, 20 mM HEPES, 5 mM glucose, 1 mM MgCl2, pH 7.3) pre-warmed to 30°C and 150 µl ACD. The volume was adjusted to 25 ml with Tyrodes buffer, followed by 3 ml ACD and 1.25 µg PGI2. […]
Fluorescein-labelled, TAT-G6B-b peptides were synthesised by Peptide Protein Research Ltd (Hampshire, U.K.). […] Peptides were loaded into washed platelets by incubation with 10 µM peptide for 15 minutes at 30°C, after which they were assessed by light transmission aggregometry. […]
Washed human platelets were loaded with TAT-G6B-b peptides (either dual phosphorylated or unphosphorylated) and changes in CRP efficacy determined by light transmission aggregometry. […]

[4] = target: T1, SHP-1 tandem (N+C) SH2 domains (Homo sapiens, UniProt P29350); assay: SPR (BIAcore 3000), SHP-1 tandem (N+C) SH2 domains; assay type: binding
T1 construct: host or cells: E. coli BL21(DE3)
T1 sequence (P29350 1-213 limits assumed): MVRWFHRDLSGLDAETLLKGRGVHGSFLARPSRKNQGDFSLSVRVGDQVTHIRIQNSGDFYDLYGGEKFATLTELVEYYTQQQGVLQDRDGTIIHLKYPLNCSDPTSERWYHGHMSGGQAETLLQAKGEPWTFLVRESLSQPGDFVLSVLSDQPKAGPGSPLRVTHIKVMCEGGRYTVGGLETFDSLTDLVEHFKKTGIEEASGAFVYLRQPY
T1 sequence (O95866 182-241 partner limits assumed): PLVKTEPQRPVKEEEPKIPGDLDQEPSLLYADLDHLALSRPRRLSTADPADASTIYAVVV
Experimental: (§6) These proteins were expressed in BL21(DE3) cells (Invitrogen) induced with 1 mM IPTG for 4 hours at 37°C. Bacteria were pelleted and washed in PBS/0.5 M NaCl prior to sonication in PBS/0.5 M NaCl, in the presence of protease inhibitor cocktail (Complete, EDTA-free, Roche). Soluble and insoluble fractions were separated by centrifugation at 30,000 g for 60 minutes. Soluble fractions containing tagged proteins were incubated for 1 hour at 4°C with end-over-end mixing in the presence of washed Ni-Sepharose (GE Lifesceinces, Little Chalfont, U.K.) supplemented with 40 mM imidazole or Amylose resin (NEB, Herts, U.K). Proteins were eluted according to the manufacturer's instructions and purified by size exclusion chromatography on an AKTApurifier (GE Lifesciences, Little Chalfont, U.K).
Experiments were conducted on a BIAcore™ 3000 in HBS buffer (0.01 M HEPES, pH 7.4, containing 0.15 M NaCl, 3 mM EDTA, and 0.005% v/v P-20, GE Life Sciences, Amersham, UK). […] Binding affinities for the single ITIM/ITSM peptides were determined by plotting equilibrium binding measurements (RU) against SH2 domain protein concentration (Origin 8, OriginLab, MA, USA). […] KD was determined as Koff/Kon, which were determined using both GraphPad Prism 5.0 (GraphPad, La Jolla, CA, USA) and BIAevaluation Software (GE Life Sciences, Amersham,UK). […]

Syk = target: T2, Syk (Homo sapiens, UniProt P43405); assay: SPR (BIAcore 3000), Syk SH2 domains; assay type: binding; settings: HBS pH 7.4, 37°C, n = 3
T2 construct: made in house
Experimental: Experiments were conducted on a BIAcore™ 3000 in HBS buffer (0.01 M HEPES, pH 7.4, containing 0.15 M NaCl, 3 mM EDTA, and 0.005% v/v P-20, GE Life Sciences, Amersham, UK). Streptavidin was coupled to a research grade CM5 chip (GE Life Sciences, Amersham, UK) as previously described, [13]. Protein-peptide interactions were carried out a rate of 10 µl/min at a constant temperature of 37°C to more accurately reflect physiological conditions. Biotinylated peptides were bound to the streptavidin-coated CM5 chips at 37°C to between 25–50 RU [14]. Purified monomeric SH2 domains were passed over the immobilised peptides at a range of concentrations. Anti-phosphotyrosine monoclonal antibody (Sigma, Poole, U.K.) was passed over the chip to saturation at the end of each experiment to verify peptide coverage on the chip. Binding affinities for the single ITIM/ITSM peptides were determined by plotting equilibrium binding measurements (RU) against SH2 domain protein concentration (Origin 8, OriginLab, MA, USA). KD was defined as the concentration of SH2 protein that gave half maximal binding to the peptide. For the 60-mer peptides, SH2 domains were passed over the chip surface at 50 µl/min. KD was determined as Koff/Kon, which were determined using both GraphPad Prism 5.0 (GraphPad, La Jolla, CA, USA) and BIAevaluation Software (GE Life Sciences, Amersham,UK). […]

[5] = target: T3, N-terminal SH2 domain of SHP-2 (Homo sapiens, UniProt Q06124); assay: SPR (BIAcore 3000), single N-terminal SH2 domain of SHP-2; assay type: binding; settings: equilibrium binding, single site fitting, HBS pH 7.4, 37°C, 10 µl/min, read-out: KD
T3 construct: SHP-2 (N)SH2 (His-tag) (OMC #3912); His-tag; host or cells: E. coli BL21(DE3)
T3 sequence (Q06124 6-102 limits assumed): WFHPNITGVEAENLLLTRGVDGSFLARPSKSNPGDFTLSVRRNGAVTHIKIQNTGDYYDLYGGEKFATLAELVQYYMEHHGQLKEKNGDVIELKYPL
Experimental: as §6
Experiments were conducted on a BIAcore™ 3000 in HBS buffer (0.01 M HEPES, pH 7.4, containing 0.15 M NaCl, 3 mM EDTA, and 0.005% v/v P-20, GE Life Sciences, Amersham, UK). Streptavidin was coupled to a research grade CM5 chip (GE Life Sciences, Amersham, UK) as previously described, [13]. Protein-peptide interactions were carried out a rate of 10 µl/min at a constant temperature of 37°C to more accurately reflect physiological conditions. Biotinylated peptides were bound to the streptavidin-coated CM5 chips at 37°C to between 25–50 RU [14]. Purified monomeric SH2 domains were passed over the immobilised peptides at a range of concentrations. Anti-phosphotyrosine monoclonal antibody (Sigma, Poole, U.K.) was passed over the chip to saturation at the end of each experiment to verify peptide coverage on the chip. Binding affinities for the single ITIM/ITSM peptides were determined by plotting equilibrium binding measurements (RU) against SH2 domain protein concentration (Origin 8, OriginLab, MA, USA). KD was defined as the concentration of SH2 protein that gave half maximal binding to the peptide. […] KD was determined as Koff/Kon, which were determined using both GraphPad Prism 5.0 (GraphPad, La Jolla, CA, USA) and BIAevaluation Software (GE Life Sciences, Amersham,UK).

[6] = target: T4, SHP-2 tandem (N+C) SH2 domains (Homo sapiens, UniProt Q06124); assay: SPR (BIAcore 3000), SHP-2 tandem (N+C) SH2 domains; assay type: binding; settings: kinetic (koff/kon), single site model, HBS pH 7.4, 37°C, 50 µl/min, mean, n = 5, SEM
T4 construct: SHP-2 (N+C)SH2 domains (His-tag) (3911); His-tag; host or cells: E. coli BL21(DE3)
T4 sequence (Q06124 1-216 limits assumed): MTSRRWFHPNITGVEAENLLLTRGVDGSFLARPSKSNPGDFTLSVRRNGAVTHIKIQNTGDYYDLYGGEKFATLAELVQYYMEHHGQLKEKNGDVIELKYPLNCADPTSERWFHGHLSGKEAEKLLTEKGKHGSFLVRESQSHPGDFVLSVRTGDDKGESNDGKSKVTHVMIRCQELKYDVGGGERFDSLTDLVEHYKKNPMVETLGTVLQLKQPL
T4 sequence (O95866 182-241 partner limits assumed): T1 sequence (O95866 182-241 partner limits assumed)
Experimental: Experiments were conducted on a BIAcore™ 3000 in HBS buffer (0.01 M HEPES, pH 7.4, containing 0.15 M NaCl, 3 mM EDTA, and 0.005% v/v P-20, GE Life Sciences, Amersham, UK). Streptavidin was coupled to a research grade CM5 chip (GE Life Sciences, Amersham, UK) as previously described [12], [13]. Protein-peptide interactions were carried out a rate of 10 µl/min at a constant temperature of 37°C to more accurately reflect physiological conditions. Biotinylated peptides were bound to the streptavidin-coated CM5 chips at 37°C to between 25–50 RU [14]. Purified monomeric SH2 domains were passed over the immobilised peptides at a range of concentrations. Anti-phosphotyrosine monoclonal antibody (Sigma, Poole, U.K.) was passed over the chip to saturation at the end of each experiment to verify peptide coverage on the chip. Binding affinities for the single ITIM/ITSM peptides were determined by plotting equilibrium binding measurements (RU) against SH2 domain protein concentration (Origin 8, OriginLab, MA, USA). […] For the 60-mer peptides, SH2 domains were passed over the chip surface at 50 µl/min. KD was determined as Koff/Kon, which were determined using both GraphPad Prism 5.0 (GraphPad, La Jolla, CA, USA) and BIAevaluation Software (GE Life Sciences, Amersham,UK).
We kinetically determined the binding affinity (KD = koff/kon) by SPR at physiological temperatures.

[7] = 10 µM peptide, 15 min, 30°C, vs vehicle control
[8] = listed as G6B-b dual phosphorylated peptide

## unphosphorylated control peptides: biotinylated 60-mer G6B-b peptide (182 to 241), unphosphorylated (PLVKTEPQRPVKEEEPKIPGDLDQEPSLLYADLDHLALSRPRRLSTADPADASTIYAVVV; also: biotinylated (end not given here))
SHP-2
  association: No SHP-1 or SHP-2 bound
SHP-1
  association: No SHP-1 or SHP-2 bound

## FLUO- GRKKRRQRRRPQDLDQEPSLLY*ADLDHLALSRPRRLSTADPADASTIY*AVVV [dual phosphorylated G6B-b TAT-peptide, Fluorescein-labelled TAT-G6B-b peptide phosphorylated at both ITIMs]
[1]; [7]
  fold increase in EC50 of CRP: ~1.65 fold
[1]
  effect on EC50 / sensitivity to CRP: can reduce the EC50 for both CRP and collagen
[1]; [8]
  effect on EC50 / sensitivity to CRP: reduces platelet sensitivity to GPVI agonists
[2]; [7]
  fold increase in EC50 of collagen: 2.5 fold
[2]
  effect on EC50 / sensitivity to collagen: can reduce the EC50 for both CRP and collagen
[2]; [8]
  effect on EC50 / sensitivity to collagen: reduces platelet sensitivity to GPVI agonists
[3]
  thrombin-mediated activation: unaffected

## PLVKTEPQRPVKEEEPKIPGDLDQEPSLL[pY]ADLDHLALSRPRRLSTADPADASTI[pY]AVVV [dual phosphopeptide]
[4]; 37°C, dual peptide, read-out: Koff (dissociation rate)
  Koff: 0.01 s⁻¹
[4]; kinetic (koff/kon), single site model, HBS pH 7.4, 37°C, 50 µl/min, mean, n = 5, SEM, read-out: binding affinity (KD)
  Kd: 35.3 ± 4.3 nM
Syk
  Kd: ~25000 nM
[5]
  Kd: 130 nM
[6]
  Kd: 0.48 ± 0.09 nM
